According to patent publication US6887847B2, “Virus derived antimicrobial peptides” (University of Pittsburgh, priority 2001, dated 2005):
Converted amounts (≈) assume the structure as drawn. Where two headings read alike, the source gives them in different places. Residues, ends and D or L forms follow the SMILES beside them.

Key:
[1] = biological target: Ca^2+-saturated calmodulin (Homo sapiens, UniProt P0DP23); settings: host cell Ca^2+-saturated calmodulin; cited from earlier work
[2] = tested on: Staphylococcus aureus; settings: 1×10^5 colony-forming units; cited from earlier work
[3] = tested on: diverse gram-negative and -positive bacterial isolates; settings: cited from earlier work
[4] = tested on: Pseudomonas aeruginosa; assay type: cell-based
Excerpt: (§1) The assays for growth inhibition of a microbial target can be used to derive a minimum bactericidal concentration (MBC) value for the peptide, i.e., the concentration of peptide required to kill 99.9% of the microbial sample being tested. This value is well known to those in the art as representative of the effectiveness of a particular antimicrobial agent (e.g., an antibiotic) against a particular organism or group of organisms. In assays to detect the MBC of a peptide, growth inhibition of a bacterial population also can be measured with reference to the number of colony forming units (cfu) after exposure to a peptide relative to a control experiment without a peptide.
(§2) Bacterial lysis assay. Bacterial lysis assays were conducted in a manner similar to that described previously (Lehrer, R. I., M. E. Selsted, D. Szklarek, and F. J. 1983. Infect. Immun. 42: 10-4, 1983; Miller, M. A., R. F. Garry, J. M. Jaynes, and R. C. Montelaro, AIDS Res Hum Retroviruses 7: 511-519, 1991). Bacterial suspensions were cultured in Luria-Bertani Broth to mid-log growth phase and washed by two cycles of centrifugation and suspension in 10 mM phosphate buffer. The Abs600 of the suspension was adjusted with 10 mM phosphate buffer such that, upon dilution, 5-10×10^5 cfu/mL would be treated in the assay. Bacteria were incubated for 1 h with two-fold dilutions of peptides (100 μM to 100 nM) in 96-well plates using 10 mM phosphate buffer, pH 7.2, as a diluent. Ten-fold dilutions of bacteria were performed to 1:1000; a 100 μl aliquot from each condition was spread on the surface of tryptic soy agar plates (Difco, Detroit, Mich.) which were incubated overnight. Colonies of surviving bacteria (cfu, colony-forming units) were counted and compared to untreated controls to determine the amount of peptide-induced killing under each condition. Log killing is defined as the log of the ratio of cfu present before and after treatment with peptide. The minimal bactericidal concentration, MBC, is the peptide concentration at which 99.9% (three log) killing is achieved (Pearson et al., Antimicrob. Agents Chemother. 18: 699-708, 1980).
(§3) A limitation of many host-derived antimicrobial peptides is their decreased activity at physiologic (150 mM) NaCl concentration. See Friedrich et al., Antimicrobial Agents and Chemotherapy 43:1542-1548. The peptides WLSA-5 (SEQ ID NO:3) and LL37 were tested against the two index strains at physiologic NaCl. […] The activity of eLLPs and LBUs of this invention were compared to an expanded list of clinical bacterial isolates. These are summarized in Table 2 by comparing their MBCs in phosphate buffer alone (low salt) and phosphate buffer containing 150 mM NaCl (physiologic conditions). Inspection of this table would lead one skilled in the art to conclude that the activity of eLLPs and LBUs compare favorably to the host derived antimicrobial peptides as it relates to the spectrum and potency of antimicrobial activity.

[5] = tested on: Staphylococcus aureus; assay: Bacterial lysis (broth dilution) assay, MBC; assay type: cell-based
Excerpt: as §1, §2, §3

[6] = tested on: Methicillin Resistant S. aureus; assay type: cell-based, Staphylococcus aureus; settings: 0 mM NaCl (phosphate buffer, low salt)
Excerpt: as §1
Bacterial lysis assay. Bacterial lysis assays were conducted in a manner similar to that described previously (Lehrer, R. I., M. E. Selsted, D. Szklarek, and F. J. 1983. Infect. Immun. 42: 10-4, 1983; Miller, M. A., R. F. Garry, J. M. Jaynes, and R. C. Montelaro, AIDS Res Hum Retroviruses 7: 511-519, 1991). Bacterial suspensions were cultured in Luria-Bertani Broth to mid-log growth phase and washed by two cycles of centrifugation and suspension in 10 mM phosphate buffer. […] Colonies of surviving bacteria (cfu, colony-forming units) were counted and compared to untreated controls to determine the amount of peptide-induced killing under each condition. […]

[7] = Rabbit joint model of septic arthritis; assay type: in vivo, New Zealand white rabbit; settings: peptide administered alone, all animal experiments
Excerpt: We have extended these findings to a septic arthritis animal model. In this study joint sepsis was induced by inoculating one knee of a 2.5 Kg New Zealand white rabbit with 1×10^5 colony forming units of a clinical S. aureus isolate, a strain resistant to penicillin but sensitive to methicillin, cephalosporins, and clindamycin. Using this model, symptoms of septic arthritis (e.g., degradation of the synovium) were monitored and the ability of antimicrobial agents to limit the degeneration of the joint post-infection can be assessed. In this application the bacterial infection is allowed to establish for 1 h. At this point the joint was accessed and increasing concentrations of LSA-5 (SEQ ID NO:2) (0, 50, 100, and 200 μM) in phosphate buffer (PB) was administered intraarticularly. The concentration of bacteria associated with joint fluid was established at time 0 and 1 h post LSA-5 (SEQ ID NO:2) instillation by plating dilutions of the synovial fluid on LB agar.
This was compared with multiple injections of a standard 0.35% neomycin or a combination of neomycin and LSA-5 (SEQ ID NO:2). Administration of each of these formulations was performed intraarticularly at time 0,1, and 2 h.

[8] = 0 mM NaCl (phosphate buffer, low salt)

| SMILES | calmodulin binding affinity [1] | time to nearly sterilize suspension [2] [s] | antibacterial activity compared with magainin-2 [3] | MBC [4, 8] [µM] | MBC ([4]; 150 mM NaCl (physiologic)) [µM] | MBC [5, 8] [µM] | MBC ([5]; 150 mM NaCl (physiologic)) [µM] | MBC [6] [µM] | adverse toxicity [7] |
| --- | --- | --- | --- | --- | --- | --- | --- | --- | --- |
| CC[C@H](C)[C@H](NC(=O)[C@H](C)NC(=O)[C@H](CCCNC(=N)N)NC(=O)[C@H](CS)NC(=O)[C@H](C)NC(=O)CNC(=O)[C@H](CCC(N)=O)NC(=O)[C@@H](NC(=O)[C@@H](NC(=O)[C@H](CCC(=O)O)NC(=O)[C@@H](NC(=O)[C@@H](NC(=O)[C@@H](N)CCCNC(=N)N)C(C)C)[C@@H](C)CC)C(C)C)C(C)C)C(=O)N[C@@H](CCCNC(=N)N)C(=O)N[C@@H](Cc1c[nH]cn1)C(=O)N[C@H](C(=O)N1CCC[C@H]1C(=O)N[C@@H](CCCNC(=N)N)C(=O)N[C@@H](CCCNC(=N)N)C(=O)N[C@H](C(=O)N[C@@H](CCCNC(=N)N)C(=O)N[C@@H](CCC(N)=O)C(=O)NCC(=O)N[C@@H](CC(C)C)C(=O)N[C@@H](CCC(=O)O)C(=O)N[C@@H](CCCNC(=N)N)C(=O)N[C@H](C(=O)N[C@@H](CC(C)C)C(=O)O)[C@@H](C)CC)[C@@H](C)CC)[C@@H](C)CC [LLP1] (H-RVIEVVQGACRAIRHIPRRIRQGLERIL-OH; N-terminus and C-terminus assumed) | near nanomolar affinity | ≤ 60 | equal to, or more potent than magainin-2 | – | – | – | – | – | – |
| CC[C@H](C)[C@H](NC(=O)[C@H](C)NC(=O)[C@H](CCCNC(=N)N)NC(=O)[C@H](CS)NC(=O)[C@H](C)NC(=O)[C@H](CCCNC(=N)N)NC(=O)[C@H](CCC(N)=O)NC(=O)[C@@H](NC(=O)[C@@H](NC(=O)[C@H](CCCNC(=N)N)NC(=O)[C@@H](NC(=O)[C@@H](NC(=O)[C@@H](N)CCCNC(=N)N)C(C)C)[C@@H](C)CC)C(C)C)C(C)C)C(=O)N[C@@H](CCCNC(=N)N)C(=O)N[C@@H](Cc1c[nH]cn1)C(=O)N[C@H](C(=O)N[C@H](C(=O)N[C@@H](CCCNC(=N)N)C(=O)N[C@@H](CCCNC(=N)N)C(=O)N[C@H](C(=O)N[C@@H](CCCNC(=N)N)C(=O)N[C@@H](CCC(N)=O)C(=O)NCC(=O)N[C@@H](CC(C)C)C(=O)N[C@@H](CCCNC(=N)N)C(=O)N[C@@H](CCCNC(=N)N)C(=O)N[C@H](C(=O)N[C@@H](CC(C)C)C(=O)N[C@@H](CCCNC(=N)N)C(=O)N[C@H](C(=O)N[C@H](C(=O)O)C(C)C)C(C)C)[C@@H](C)CC)[C@@H](C)CC)C(C)C)[C@@H](C)CC [LSA-5] (H-RVIRVVQRACRAIRHIVRRIRQGLRRILRVV-OH) | – | – | – | 0.8 | 0.8 (≈ 3.06 µg/mL) | 1 | 1 (≈ 3.82 µg/mL) | 0.15 | no adverse toxicity was observed |
